Test results as given in patent US20240142474A1, “Opsins as Chemosensory Receptors and Related Methods” (The Regents of the University of California, priority 2021, published 2024).
“Also recorded” adds a separate entry of the source.

Legend:
OPN3 [1] = biological target: T1, OPN3 (Mus musculus, UniProt Q9WUK7); test: TANGO assay (beta-arrestin recruitment, luciferase reporter) in HTLA cells, OPN3; type: cell-based; conditions: 4 hours
T1 construct: expressed in transfected cells; host or cells: HTLA cells (HEK293 line with tTA-dependent luciferase reporter and beta-arrestin2-TEV fusion)
T1 sequence (Q9WUK7 whole entry, the tested form may be a part): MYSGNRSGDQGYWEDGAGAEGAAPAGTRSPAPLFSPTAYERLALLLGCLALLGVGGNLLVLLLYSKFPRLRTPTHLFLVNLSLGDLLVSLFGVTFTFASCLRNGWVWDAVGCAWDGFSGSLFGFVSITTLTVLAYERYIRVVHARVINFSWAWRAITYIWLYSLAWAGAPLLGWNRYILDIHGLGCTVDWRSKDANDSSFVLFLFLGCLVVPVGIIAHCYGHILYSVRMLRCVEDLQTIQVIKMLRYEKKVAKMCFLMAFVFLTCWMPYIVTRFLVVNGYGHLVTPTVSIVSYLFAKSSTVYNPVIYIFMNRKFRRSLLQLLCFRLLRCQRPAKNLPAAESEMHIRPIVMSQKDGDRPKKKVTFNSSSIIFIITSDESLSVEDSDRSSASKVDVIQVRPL
Text: (§1) For example, in one implementation the chemosensory opsin activation detection element comprises a TANGO assay (Transcriptional Activation Following Arrestin Translocation), as known in the art, for example, as described by Kroeze et al., 2015. PRESTO-Tango as an open-source resource for interrogation the druggable human GPCRome. Nat Struct Mol Biol 22, 362-369. In the TANGO systems of the invention, a cell is engineered to express a chemosensory opsin in the form of a fusion protein, wherein the opsin fusion protein comprises an optional membrane trafficking signal (e.g. HA), an optional FLAG tag or like epitope to facilitate detection, and a transcriptional activator which induces the expression of a reporter gene, such as luciferase, wherein the transcriptional activator is joined to an intracellular portion of the opsin, for example, the […], by a cleavage sequence. The cells of the TANGO system are further engineered to express a second fusion protein comprising a beta-arrestin fused to a protease, for example, a TEV protease, wherein the protease is capable of cleaving the fusion protein at the cleavage site. The cells of the TANGO system are further engineered to express a reporter protein, e.g. luciferase, under the control of a transcriptional activator, for example, tetracycline-controlled transactivaor (tTA). Ligand binding to the opsin deployed in the TANGO system triggers a conformational change in the opsin that recruits the beta arrestin-protease fusion protein to the opsin, where proximity of the protease induces cleavage of the transcriptional activator, which trafficks to the nucleus and induces the expression of the reporter gene. The TANGO system advantageously allows direct quantification of opsin activation, independent of g protein activity.
(§2) Human transcriptomics data was mined to identify putative taste receptor proteins. […] However, the role of these opsins in taste perception has not been previously explored. TANGO detection elements employing each of these opsins, in both human and mouse isoforms, were created in HTLA cells (a HEK293 cell line stably expressing a tTA-dependent luciferase reporter and a β-arrestin2-TEV fusion gene), based on protocols in Kroeze et al., 2015. PRESTO-Tango as an open-source resource for interrogation of the druggable human GPCRome. Nat Struct Mol Biol 22, 362-369.
(§3) In the TANGO assay, the mouse opsin coding sequence with an N-terminal FLAG tag was synthesized. The construct was cloned into a TANGO vector (Addgene, Waterton MA) at the ClaI site (FLAG::opsin). The HTLA cells were transfected in a 6-well format with LIPOFECTAMINE 2000™ (Thermo Fisher Scientific, Inc, Waltham MA, USA) according to the manufacturer's instructions. 6-8 hours post transfection cells weret split 1:3 and the media was switched to DMEM+ 2.5% fetal bovine serum (Thermo Fisher Scientific Inc., Waltham MA, USA). Cells were allowed to grow for 48 hours before splitting the cells onto poly-L-lysine-coated 96-well clear, flat bottom white polystyrene plates in serum-free media. The next day, chemical solutions diluted in TANGO assay buffer (20 mM HEPES, 1× HBSS, pH 7.40) were added to the cells. After 4 hours, the medium and drug solutions were removed and replaced with […] per well of BRIGHTGLO™ reagent (Promega Corporation, Madison WI) diluted 20-fold with TANGO assay buffer. Plates were incubated for 20 minutes at room temperature in the dark before measuring luminescence with a plate reader (Molecular Devices, iD3). The normalized response was calculated using following formula: RLU (relative luminescence units)=test compound RLU−average vehicle control RLU.

OPN3 knockout mice = test: Mouse brief-access taste assay (lickometer), OPN3 knockout mice compared to wild type; type: in vivo; conditions: water restricted
Experimental: Knockout mice were obtained for OPN1SW and OPN3. Two independent OPN3 knockout mice lines were tested for reaction to naringin by a mouse taste preference assay. A Lickometer device (MS-160, Di Log Instruments, Inc.,Tallahassee, FL, USA) was used to train mice and then measure their licking responses to different tastants in brief-access trials. On a given trial, each sipper tube was filled with a solution and made available to a mouse via a small port that opened to a metal/plexiglass chamber housing the animal. The mouse chamber of the lickometer was modified for these studies by adding a plexiglass barrier that restricted the free movement of animals to an approximate 10 by 15 cm area facing the fluid access port. A computer running software that communicated with the lickometer recorded tongue contacts with the metal tip of the sipper tube during licking and the time intervals (precision=1 ms) between consecutive licks (inter-lick intervals). The amount of time that the sipper tube was available through the access port could be programmed and was controlled by the opening of a normally closed, computer-actuated shutter. This feature facilitated presentation of solutions to a mouse for only a few seconds to support measurements of brief-access licking behavior. By indexing initial licking responses to stimuli over short periods, brief-access procedures intend to focus on oral sensory influences and avoid any post-ingestive effect. Groups of three to four mice were run in these studies at one time. Groups always included equal numbers of mutant and wild-type mice to control for temporal factors.
Training. Mice were restricted from drinking water for 20-22 hours prior to the onset of training. During training, experimentally naive mice learned to receive fluid in the lickometer over a 3-day period. On the first and second day of training, mice were given 30 minutes free access to a single sipper tube of water to familiarize them with accessing fluid in the lickometer device. Each 30 minute period began when the mouse made its first lick on the sipper tube; mice were allowed 30 minutes to make their first lick. On the third day of training, mice were presented with 10 second presentations (i.e., trials) of water to familiarize them with receiving and consuming fluid under a brief-access procedure in the lickometer. On each trial, the shutter that blocked access to the sipper tube was opened and mice were given 10 seconds to lick, and lick data were recorded by the lickometer computer. […]
Testing. […] For studies, individual Opn3KO, Opn1swKO, Opn4KO, Opn5KO and wild-type mice were evaluated for brief-access licking responses with different agonists. […]

OPN1SW [2] = biological target: T2, OPN1SW (Mus musculus, UniProt P51491); test: TANGO assay (beta-arrestin recruitment, luciferase reporter) in HTLA cells, OPN1SW; type: cell-based; conditions: 4 hours
T2 construct: expressed in transfected cells; host or cells: HTLA cells (HEK293 line with tTA-dependent luciferase reporter and beta-arrestin2-TEV fusion)
T2 sequence (P51491 1-346): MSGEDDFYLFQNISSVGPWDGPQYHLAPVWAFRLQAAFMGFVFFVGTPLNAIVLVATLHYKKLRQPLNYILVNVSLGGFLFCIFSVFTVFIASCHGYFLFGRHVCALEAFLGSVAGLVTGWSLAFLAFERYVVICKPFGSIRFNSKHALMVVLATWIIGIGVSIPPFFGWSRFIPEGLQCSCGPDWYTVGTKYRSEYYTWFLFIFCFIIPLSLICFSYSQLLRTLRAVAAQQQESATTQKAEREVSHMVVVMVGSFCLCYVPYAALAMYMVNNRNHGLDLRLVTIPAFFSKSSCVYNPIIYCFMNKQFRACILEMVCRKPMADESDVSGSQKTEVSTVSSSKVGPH
Text: as §1, §2, §3

OPN1SW [3] = biological target: T3, OPN1SW (Homo sapiens, UniProt P03999); test: Calcium flux GPCR activation assay with Fluo-8 dye, opsin-expressing HEK293T cells, OPN1SW; type: cell-based; conditions: Fluo-8 calcium flux, data not shown
T3 construct: expressed in transfected cells; host or cells: HEK293T
T3 sequence (P03999 1-345): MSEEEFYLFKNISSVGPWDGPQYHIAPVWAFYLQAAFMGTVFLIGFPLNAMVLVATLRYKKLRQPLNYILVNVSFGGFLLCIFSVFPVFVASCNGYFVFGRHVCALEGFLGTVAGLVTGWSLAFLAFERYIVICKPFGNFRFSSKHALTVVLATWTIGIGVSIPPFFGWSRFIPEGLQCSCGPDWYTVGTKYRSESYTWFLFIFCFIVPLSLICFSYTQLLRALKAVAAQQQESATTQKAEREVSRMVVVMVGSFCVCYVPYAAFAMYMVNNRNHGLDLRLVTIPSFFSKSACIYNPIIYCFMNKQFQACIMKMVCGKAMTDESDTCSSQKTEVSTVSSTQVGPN
Experimental: (§4) These foregoing TANTO results were further confirmed using a second, a calcium flux GPCR activation assay employing Fluo-8 dye, as follows. For this intracellular Ca^2+ measurement, opsin-expressing HEK293T cells were seeded onto 96-well plates (4×10^4 cells per well) in 100 μl of culture medium with reduced serum contents (0.5% of FBS) per well and incubated overnight under standard culture conditions. [Ca2+]i level was assessed the next day after stimulation with bitter compounds used at a different concentration with the SCREEN QUEST Fluo-8 No Wash Calcium Assay Kit (AAT Bioquest, Inc., Sunnyvale, CA, USA) according to the supplier's protocol. Calcium flux was monitored simultaneously by the change in fluorescence (Ex/Em=490/520 nm) following stimulation and with respect to the background fluorescence. [Ca^2+]i was monitored for a period of three minutes, starting before the addition of compounds to the wells and continuing during measurement of the fluorescent signal following cells' stimulation. The obtained fluorescence reads were normalized to the results obtained after stimulation of the cells with the compound solvent.

OPN3 [4] = biological target: T4, OPN3 (Homo sapiens, UniProt Q9H1Y3); test: Calcium flux GPCR activation assay with Fluo-8 dye, opsin-expressing HEK293T cells, OPN3; type: cell-based; conditions: Fluo-8 calcium flux, data not shown
T4 construct: expressed in transfected cells; host or cells: HEK293T
T4 sequence (Q9H1Y3 whole entry): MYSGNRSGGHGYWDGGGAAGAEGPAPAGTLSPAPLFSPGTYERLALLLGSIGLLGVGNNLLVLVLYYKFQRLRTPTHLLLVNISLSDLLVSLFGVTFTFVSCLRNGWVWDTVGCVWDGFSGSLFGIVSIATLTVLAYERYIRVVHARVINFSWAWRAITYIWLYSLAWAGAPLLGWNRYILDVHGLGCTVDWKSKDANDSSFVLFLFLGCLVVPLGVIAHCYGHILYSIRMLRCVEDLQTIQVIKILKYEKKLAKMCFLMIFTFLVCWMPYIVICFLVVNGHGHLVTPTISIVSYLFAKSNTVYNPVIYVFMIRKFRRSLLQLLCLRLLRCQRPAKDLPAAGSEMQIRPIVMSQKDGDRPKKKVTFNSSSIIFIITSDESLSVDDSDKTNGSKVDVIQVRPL
Experimental: as §4

Compound | activation of OPN3, fold-change from baseline luciferase signal vs. log concentration of tastant (OPN3 [1]) | activation of OPN1SW, fold-change from baseline luciferase signal vs. log concentration of tastant (OPN1SW [2]) | activation of calcium dye OPN3 detection elements (OPN3 [4]) | also measured
O=c1c(O)c(-c2ccc(O)c(O)c2)oc2cc(O)cc(O)c12 [quercetin] | activated OPN3; also recorded: activation of OPN3 | – | – | aversion to the bitter flavor (lick ratio), OPN3 knockout mice compared to wild type mice (OPN3 knockout mice): reduced aversion
Cn1cnc2c1c(=O)[nH]c(=O)n2C [theobromine] | – | activated; also recorded: activation of OPN1SW | – | activation of calcium dye OPN1SW detection elements (OPN1SW [3]): significantly activated in a concentration dependent manner
CC1(C)O[C@H]2CC(=O)OC[C@]23[C@H]2CC[C@@]4(C)[C@H](c5ccoc5)OC(=O)[C@H]5O[C@]54[C@]2(C)C(=O)C[C@@H]13 [limonin] | – | activation of OPN1SW; also recorded: activated | – | activation of calcium dye OPN1SW detection elements (OPN1SW [3]): significantly activated in a concentration dependent manner
COc1ccc2c(c1OC)C(=O)O[C@@H]2[C@H]1c2c(cc3c(c2OC)OCO3)CCN1C [noscapine] | activation of OPN3; also recorded: activated | – | significantly activated in a concentration dependent manner | –
Cn1c(=O)c2[nH]cnc2n(C)c1=O [theophylline] | – | activation of OPN1SW; also recorded: activated | – | activation of calcium dye OPN1SW detection elements (OPN1SW [3]): significantly activated in a concentration dependent manner
N#C[C@H](O[C@@H]1O[C@H](CO[C@@H]2O[C@H](CO)[C@@H](O)[C@H](O)[C@H]2O)[C@@H](O)[C@H](O)[C@H]1O)c1ccccc1 [amygdalin] | activation of OPN3; also recorded: activated | – | significantly activated in a concentration dependent manner | –
CC1=CC(=O)[N-]S(=O)(=O)O1.[K+] [asulfame potassium] | activation of OPN3 | activation of OPN1SW | – | –
catechin | activated OPN3; also recorded: activation of OPN3 | – | – | aversion to the bitter flavor (lick ratio), OPN3 knockout mice compared to wild type mice (OPN3 knockout mice): reduced aversion
O=C(O[C@@H]1Cc2c(O)cc(O)cc2O[C@@H]1c1cc(O)c(O)c(O)c1)c1cc(O)c(O)c(O)c1 [epigallocatechin gallate] | activation of OPN3 | – | – | –
OC[C@H]1O[C@@H](Oc2ccc(O)cc2)[C@H](O)[C@@H](O)[C@@H]1O [arbutin] | activation of OPN3; also recorded: activated | – | significantly activated in a concentration dependent manner | –
O=c1c(O)c(-c2cc(O)c(O)c(O)c2)oc2cc(O)cc(O)c12 [myricetin] | activation of OPN3 | – | – | –
OC[C@H]1O[C@@H](Oc2ccccc2)[C@H](O)[C@@H](O)[C@@H]1O [phe-β-Glu, Phenyl-β-D-glucopyranoside] | activated | – | significantly activated in a concentration dependent manner | activation of OPN3, fold-change from baseline luciferase signal vs. log concentration of tastant (OPN3 [1]; listed as Phenyl-β-D-glucopyranoside): activation of OPN3
Oc1cc(O)c2c(c1)O[C@H](c1cc(O)c(O)c(O)c1)[C@H](O)C2 [Epigallocatechin] | activated OPN3 | – | – | aversion to the bitter flavor (lick ratio), OPN3 knockout mice compared to wild type mice (OPN3 knockout mice): reduced aversion
